Data published in paper PMC10033419, “Blocking NS3–NS4B interaction inhibits dengue virus in non-human primates” (Nature, 2023).
Several values for one entry are separate records, joined by “and”; a condition that tells them apart may be missing. Identical values can stand only once. Like-named read-outs stand apart in the source and are kept apart here.

How the values were obtained:
[1] = tested on: HCV Genotype 1b replicon; test: microbe, parasite or virus in culture; type: cell-based; conditions: Hepatitis C virus
[2] = tested on: CHIKV S27; test: CPE inhibition assay ATPLite, Huh-7; type: cell-based; conditions: Chikungunya virus
[3] = tested on: WNV R94224; test: microbe, parasite or virus in culture; type: cell-based; conditions: West Nile virus
[4] = tested on: DENV-2 Asian America Martinique; type: cell-based; conditions: T108I in NS4B
[5] = tested on: HBV replicon; test: microbe, parasite or virus in culture; type: cell-based; conditions: Hepatitis B virus
[6] = in vivo; conditions: both, Indian-origin, rhesus monkey, po
[7] = MTS/PMS toxicity assay; type: cell-based, African green monkey; conditions: African green monkey, Vero cells
Description: (§1) A potential toxic effect on host cells was tested in parallel, while omitting virus infection, using the MTS/PMS method (Promega) for Vero cells, or by high-content imaging for C6/36 cells, as described previously. […] RT–qPCR data were analysed using the QuantStudio 12K Flex software (v.1.2.3) or SDS v.1.2 Applied Biosystems software. Inhibition values for antiviral molecules were plotted using KaleidaGraph plotting software (v.4.03, Synergy Software).

[8] = tested on: Vero cells; test: MTS/PMS toxicity assay; type: cell-based, African green monkey; conditions: EXP1-EXP3, read-out: CC50, single experiments
Description: as §1

[9] = tested on: rVSV Indiana; test: microbe, parasite or virus in culture; type: cell-based, recombinant vesicular stomatitis virus; conditions: Vesicular stomatitis virus, A549
[10] = tested on: unrelated DNA and RNA viruses; test: Panel of unrelated DNA and RNA viruses; type: cell-based
[11] = tested on: DENV-1/45AZ5; test: NHP DENV-1 study, IgM/IgG ELISA; conditions: for IgG ELISA Titer / IgM ELISA Titer: Negative = 100
[12] = tested on: DENV-2/16681; test: NHP DENV-2 study, plasma viral RNA RT-qPCR; parameters: species or system rhesus macaques (M. mulatta); conditions: rhesus monkey, in vivo

## COc1cc(N[C@H](C(=O)c2c[nH]c3ccc(OC(F)(F)F)cc23)c2ccc(Cl)cc2OC)cc(S(C)(=O)=O)c1 [JNJ-1802]
[1]
  EC50: 5.5 µM
[1]; read-out: EC50, Mean
  EC50: 5.45 µM
[1]; read-out: EC90, Mean
  EC90: 20.3 µM
[2]; Huh-7
  EC50: > 25 µM
[2]; Huh-7, read-out: EC90, Mean
  EC90: > 25 µM
[3]; Vero C1008
  EC50: 0.25 µM
[3]; Vero C1008, read-out: mean EC50, range
  EC50: 0.25 to 1.1 µM
[4]
  EC50: 0.0008 ± 0.0007 µM
  EC90: 0.00188 ± 0.00137 µM
[5]; HepG2.117
  EC50: 10 µM
[5]; HepG2.117, read-out: EC50, Mean
  EC50: 9.96 µM
[5]; HepG2.117, read-out: EC90, Mean
  EC90: 12.5 µM
[6]
  bioavailability: 18 to 27%
[6]; 0.18 mg/kg
  AUC(0-t): 491 ± 147 ng·h/mL
[6]; 0.18 mg/kg, AUC(0-24h)
  AUC(0-t): 227 ± 146 ng·h/mL
[6]; 0.18 mg/kg, Cmax
  Cmax: 15.1 ± 8.5 ng/mL
[6]; 0.18 mg/kg, tmax
  Tmax: 8 to 24 h
[7]; EXP1-EXP3, read-out: CC50, single experiments
  CC50: 2.77 µM
[7]; Vero, read-out: CC50
  CC50: > 2.26 µM
[7]; mean, read-out: CC50 MEAN
  CC50: > 2.3 µM
[7]; median, read-out: CC50 MEDIAN
  CC50: > 2 µM
[8]
  CC50: > 2 µM
[9]
  EC50: 6.9 µM
[10]
  activity against unrelated DNA and RNA viruses: inactive
[11]; 6 mg per kg per day q.d.
  IgM and IgG responses: undetectable
[11]; animal R7, Day 0
  IgG ELISA Titer: 100
  IgM ELISA Titer: 100
[11]; animal R7, Day 5
  IgG ELISA Titer: 100
  IgM ELISA Titer: 100
[11]; animal R7, Day 7
  IgG ELISA Titer: 100
  IgM ELISA Titer: 100
[11]; animal R7, Day 9
  IgG ELISA Titer: 100
  IgM ELISA Titer: 100
[11]; animal R7, Day 11
  IgG ELISA Titer: 100
  IgM ELISA Titer: 100
[11]; animal R7, Day 14
  IgG ELISA Titer: 100
  IgM ELISA Titer: 100
[11]; animal R7, Day 29
  IgG ELISA Titer: 100
  IgM ELISA Titer: 100
[11]; animal R8, Day 0
  IgG ELISA Titer: 100
  IgM ELISA Titer: 100
[11]; animal R8, Day 5
  IgG ELISA Titer: 100
  IgM ELISA Titer: 100
[11]; animal R8, Day 7
  IgG ELISA Titer: 100
  IgM ELISA Titer: 100
[11]; animal R8, Day 9
  IgG ELISA Titer: 100
  IgM ELISA Titer: 100
[11]; animal R8, Day 11
  IgG ELISA Titer: 100
  IgM ELISA Titer: 100
[11]; animal R8, Day 14
  IgG ELISA Titer: 100
  IgM ELISA Titer: 100
[11]; animal R8, Day 29
  IgG ELISA Titer: 100
  IgM ELISA Titer: 100
[11]; animal R9, Day 0
  IgG ELISA Titer: 100
  IgM ELISA Titer: 100
[11]; animal R9, Day 5
  IgG ELISA Titer: 100
  IgM ELISA Titer: 100
[11]; animal R9, Day 7
  IgG ELISA Titer: 100
  IgM ELISA Titer: 100
[11]; animal R9, Day 9
  IgG ELISA Titer: 100
  IgM ELISA Titer: 100
[11]; animal R9, Day 11
  IgG ELISA Titer: 100
  IgM ELISA Titer: 100
[11]; animal R9, Day 14
  IgG ELISA Titer: 100
  IgM ELISA Titer: 100
[11]; animal R9, Day 29
  IgG ELISA Titer: 100
  IgM ELISA Titer: 100
[11]; animal R10, Day 0
  IgG ELISA Titer: 100
  IgM ELISA Titer: 100
[11]; animal R10, Day 5
  IgG ELISA Titer: 100
  IgM ELISA Titer: 100
[11]; animal R10, Day 7
  IgG ELISA Titer: 100
  IgM ELISA Titer: 100
[11]; animal R10, Day 9
  IgG ELISA Titer: 100
  IgM ELISA Titer: 100
[11]; animal R10, Day 11
  IgG ELISA Titer: 100
  IgM ELISA Titer: 100
[11]; animal R10, Day 14
  IgG ELISA Titer: 100
  IgM ELISA Titer: 100
[11]; animal R10, Day 29
  IgG ELISA Titer: 100
  IgM ELISA Titer: 100
[11]; animal R11, Day 0
  IgG ELISA Titer: 100
  IgM ELISA Titer: 100
[11]; animal R11, Day 5
  IgG ELISA Titer: 100
  IgM ELISA Titer: 100
[11]; animal R11, Day 7
  IgG ELISA Titer: 100
  IgM ELISA Titer: 100
[11]; animal R11, Day 9
  IgG ELISA Titer: 100
  IgM ELISA Titer: 100
[11]; animal R11, Day 11
  IgG ELISA Titer: 100
  IgM ELISA Titer: 100
[11]; animal R11, Day 14
  IgG ELISA Titer: 100
  IgM ELISA Titer: 100
[11]; animal R11, Day 29
  IgG ELISA Titer: 100
  IgM ELISA Titer: 100
[11]; animal R12, Day 0
  IgG ELISA Titer: 100
  IgM ELISA Titer: 100
[11]; animal R12, Day 5
  IgG ELISA Titer: 100
  IgM ELISA Titer: 100
[11]; animal R12, Day 7
  IgG ELISA Titer: 100
  IgM ELISA Titer: 100
[11]; animal R12, Day 9
  IgG ELISA Titer: 100
  IgM ELISA Titer: 100
[11]; animal R12, Day 11
  IgG ELISA Titer: 100
  IgM ELISA Titer: 100
[11]; animal R12, Day 14
  IgG ELISA Titer: 100
  IgM ELISA Titer: 100
[11]; animal R12, Day 29
  IgG ELISA Titer: 100
  IgM ELISA Titer: 100
[12]
  DENV RNA in plasma: undetectable DENV RNA levels throughout the study period
  Viral load Assay 1 FLAG: BLOQ (key: BLOQ = Below limit of detection)
  Viral load Assay 2 FLAG: BLOQ (key: BLOQ = Below limit of detection)
  Viral load Assay 2 FLAG (2nd column): BLOQ (key: BLOQ = Below limit of detection)
  day first DENV-RNA positive (≥LLOQ): 5
  day first DENV-RNA positive (≥LLOQ), per animal: 21 and 6 and 10
  peak viraemia: comparable to the vehicle controls
